Laboratory results from patent US11203577B2, “Sulfonyl-structure-containing triazinone derivatives, their preparation methods and their uses in insect killing and/or bacterium killing” (Nankai University, priority 2017, dated 2021).
Where two headings read alike, the source gives them in different places.

Legend:
Armyworms = experiment: Test of insecticidal activity against armyworms (leaf immersion); conditions: 600 mg/kg, 3-4 days
Maize borers = experiment: Test of insecticidal activity against maize borers (leaf immersion); conditions: read-out: Mortalities (%) Maize borers
[1] = test system: mosquito larvae (Culer pipiens pallens); experiment: Test of insecticidal activity against mosquito larvae (checked after 24 h); conditions: 24 h, read-out: Mortalities (%) against mosquito larvae
Description: Method of testing against mosquito larvae: the tested mosquito larvae are Culer pipiens pallens, a normal colony fed indoor. About 5 mg compound to be tested is weighed and loaded into a penicillin vial, 5 mL acetone (or an appropriate solvent) is added into the vial, and the vial is oscillated to dissolve the compound; thus, 1,000 ppm mother liquid is obtained. 1 mL mother liquid is weighed and added into a 100 mL beaker filled with 89 mL water, 10 mosquito larvae in the early stage of the 4th instar together with 10 mL feeding solution are poured into the beaker; thus, the concentration of the pesticide solution is 10 ppm (the pesticide solutions with other concentrations are attained by diluting the mother liquid by corresponding times). […] Water solution that contains 0.5 mL test solvent is used as a blank sample.

Wheat head blight = experiment: whole plant or invertebrate; format: cell-based; conditions: Triticum aestivum, read-out: Fungicidal activity (%) Wheat head blight
[2] = test system: bean aphides (Aphis laburni Kaltenbach); experiment: Test of insecticidal activity against aphides (leaf immersion, checked after 96 h); conditions: 96 h; for mortality at 10 mg/kg / mortality at 100 mg/kg / mortality at 600 mg/kg / mortality at 2.5 mg/kg / mortality at 5 mg/kg: Aphis, read-out: Mortalities (%) against aphides
Rice bakanae disease = experiment: In vitro fungicidal activity, PDA colony diameter; format: cell-based; conditions: read-out: Fungicidal activity (%) Rice bakanae disease
Potato late blight = experiment: microbe, parasite or virus in culture; format: cell-based; conditions: Phytophthora infestans, 96 h, read-out: Fungicidal activity (%) Potato late blight
[3] = test system: Corn southern leaf blight; experiment: In vitro fungicidal activity, PDA colony diameter; format: cell-based; conditions: read-out: Fungicidal activity (%) Corn southern leaf blight
Cucumber fusarium wilt = experiment: In vitro fungicidal activity, PDA colony diameter; format: cell-based; conditions: 96 h, read-out: Fungicidal activity (%) Cucumber fusarium wilt
Watermelon anthracnose = experiment: In vitro fungicidal activity, PDA colony diameter; format: cell-based; conditions: read-out: Fungicidal activity (%) Watermelon anthracnose
Tomato early blight = experiment: In vitro fungicidal activity, PDA colony diameter; format: cell-based, Alternaria solani; conditions: read-out: Fungicidal activity (%) Tomato early blight
[4] = test system: Cercospora brown spot of peanut; experiment: In vitro fungicidal activity, PDA colony diameter; format: cell-based; conditions: 96 h, read-out: Fungicidal activity (%) Cercospora brown spot of peanut
Wheat sheath blight = experiment: In vitro fungicidal activity, PDA colony diameter; format: cell-based; conditions: read-out: Fungicidal activity (%) Wheat sheath blight
Sclerotinia rot of colza = experiment: In vitro fungicidal activity, PDA colony diameter; format: cell-based; conditions: 96 h, read-out: Fungicidal activity (%) Sclerotinia rot of colza
Cotton bollworms = experiment: Test of insecticidal activity against cotton bollworms (pesticide mixed into feedstuff); conditions: read-out: Mortalities (%) Cotton bollworms
Description: Method of testing against cotton bollworms: the pesticide is mixed into the feedstuff, i.e., 3 mL prepared solution is added into about 27 g freshly prepared feedstuff; thus, required concentration is obtained by diluting by 10 times.

Rice sheath blight = experiment: In vitro fungicidal activity, PDA colony diameter; format: cell-based; conditions: read-out: Fungicidal activity (%) Rice sheath blight
Apple ring rot = experiment: In vitro fungicidal activity, PDA colony diameter; format: cell-based; conditions: inhibition of colony diameter
How it was run: (§1)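 Mycelial plugs cut from the edge of 7-day PDA colonies placed on PDA containing 50 mg/kg compound or on compound-free PDA, grown 4 days. Colony diameters measured; percent inhibition calculated against untreated control.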

[5] = test system: Capsicum phytophthora blight; experiment: In vitro fungicidal activity, PDA colony diameter; format: cell-based; conditions: 96 h
How it was run: as §1

[6] = test system: a variety of pathogenic fungi; experiment: In vitro fungicidal activity, summary over the tested fungi; format: cell-based; conditions: 50 mg/kg
Description: Here, the test is described in an example of Alternaria solani; it can be replaced by other fungi.
In vitro testing method: Alternaria solani is inoculated to a PDA culture medium and cultured for 7 days, a fungus dish with a diameter of […] is prepared on the periphery of the colony with a punch and inoculated to a PDA culture medium that contains pesticide at a concentration of 50 mg/kg and a PDA culture medium that doesn't contain the pesticide, and are cultured for 4 days respectively; then, the colony diameters are measured, and the inhibition percentages of the pesticides are calculated by comparing with the control sample.

[7] = 50 mg/kg, inhibition of colony diameter

| Compound | Mortalities (%) Armyworms (Armyworms) [%] | mortality at 600 mg/kg (Maize borers) [%] | mortality at 10 mg/kg [1] [%] | inhibition at 50 mg/kg (Wheat head blight) [%] | mortality at 10 mg/kg [2] [%] | mortality at 100 mg/kg [2] [%] | mortality at 600 mg/kg [2] [%] | inhibition at 50 mg/kg (Rice bakanae disease; [7]) [%] | inhibition of growth at 50 mg/kg (Potato late blight) [%] | inhibition at 50 mg/kg [3, 7] [%] | inhibition of growth at 50 mg/kg (Cucumber fusarium wilt; [7]) [%] | inhibition at 50 mg/kg (Watermelon anthracnose; [7]) [%] | inhibition at 50 mg/kg (Tomato early blight; [7]) [%] | inhibition of growth at 50 mg/kg [4, 7] [%] | inhibition at 50 mg/kg (Wheat sheath blight; [7]) [%] | inhibition of growth at 50 mg/kg (Sclerotinia rot of colza; [7]) [%] | mortality at 600 mg/kg (Cotton bollworms) [%] | inhibition at 50 mg/kg (Rice sheath blight; [7]) [%] | inhibition at 50 mg/kg (Apple ring rot) [%] | inhibition of growth at 50 mg/kg [5] [%] | other results |
| --- | --- | --- | --- | --- | --- | --- | --- | --- | --- | --- | --- | --- | --- | --- | --- | --- | --- | --- | --- | --- | --- |
| CCCCS(=O)(=O)NN1CC(C)=NNC1=O [Ia-4, N-(6-methyl-3-oxo-2,3-dihydro-1,2,4-triazin-4(5H)-yl)-n-butylsulfonamide] | 5 | 5 | 20 | 6.7 | 20 | 70 | 85 | 38.9 | 40.7 | 33.3 | 0 | 25 | 14.3 | 15.8 | 70.5 | 48.3 | 0 | 34.9 | 31 | 46.9 | fungicidal activity against a variety of pathogenic fungi [6]: outstanding fungicidal activity |
| CC1=NNC(=O)N(NS(=O)(=O)c2ccc(C)cc2)C1 [Ia-12, 4-methyl-N-(6-methyl-3-oxo-2,3-dihydro-1,2,4-triazin-4(5H)-yl)-benzenesulfonamide] | 15 | 10 | 100 | 13.3 | 100 | 100 | 100 | 27.8 | 29.6 | 33.3 | 25 | 33.3 | 33.3 | 42.1 | 72.7 | 70 | 30 | 27 | 41.4 | 40.8 | mortality at 2 mg/kg [1]: 10%; mortality at 5 mg/kg [1]: 100%; mortality at 2.5 mg/kg [2]: 30%; mortality at 5 mg/kg [2]: 100%; fungicidal activity against a variety of pathogenic fungi [6]: outstanding fungicidal activity |
| CC1=NNC(=O)N(N(S(=O)(=O)c2ccccc2)S(=O)(=O)c2ccccc2)C1 [Ib-5, N-(6-methyl-3-oxo-2,3-dihydro-1,2,4-triazin-4(5H)-yl)-N-(benzenesulfonyl)-benzenesulfonamide] | 40 | 25 | 60 | 10 | 50 | 90 | 100 |  | 22.2 | 25 | 15 | 20.8 | 38.1 | 36.8 | 68.2 | 40 | 20 | 27 | 44.8 | 42.9 | mortality at 5 mg/kg [2]: 10%; inhibition at 50 mg/kg (Rice bakanae disease): 22.2%; fungicidal activity against a variety of pathogenic fungi [6]: outstanding fungicidal activity |
| CC1=NNC(=O)N(N(S(=O)(=O)c2ccc([N+](=O)[O-])cc2)S(=O)(=O)c2ccc([N+](=O)[O-])cc2)C1 [Ib-7, N-(6-methyl-3-oxo-2,3-dihydro-1,2,4-triazin-4(5H)-yl)-4-nitro-N-(4-nitrobenzenesulfonyl)-benzenesulfonamide] | 20 | 15 | 60 | 23.3 | 25 | 85 | 100 |  | 25.9 |  |  |  |  |  |  |  | 40 |  | 0 | 36.7 | inhibition at 50 mg/kg (Rice bakanae disease): 44.4%; inhibition at 50 mg/kg [3]: 12.5%; inhibition of growth at 50 mg/kg (Cucumber fusarium wilt): 5%; inhibition at 50 mg/kg (Watermelon anthracnose): 20.8%; inhibition at 50 mg/kg (Tomato early blight): 23.8%; inhibition of growth at 50 mg/kg [4]: 21.1%; inhibition at 50 mg/kg (Wheat sheath blight): 59.1%; inhibition of growth at 50 mg/kg (Sclerotinia rot of colza): 30%; inhibition at 50 mg/kg (Rice sheath blight): 27% |
| CC(=O)Nc1ccc(S(=O)(=O)N(N2CC(C)=NNC2=O)S(=O)(=O)c2ccc(NC(C)=O)cc2)cc1 [Ib-8, 4-acetamido-N-(6-methyl-3-oxo-2,3-dihydro-1,2,4-triazin-4(5H)-yl)-N-(4-acetamidobenzenesulfonyl)-benzenesulfonamide] | 20 | 15 | 30 | 0 |  | 50 | 90 | 22.2 | 29.6 | 16.7 | 0 | 12.5 | 23.8 | 15.8 | 45.5 | 33.3 | 15 | 27 | 27.6 | 20.4 |  |
| CC1=NNC(=O)N(N(S(=O)(=O)c2cccnc2)S(=O)(=O)c2cccnc2)C1 [Ib-9, N-(6-methyl-3-oxo-2,3-dihydro-1,2,4-triazin-4(5H)-yl)-N-(pyrid-3-yl-sulfonyl)pyridyl-3-sulfonamide] | 15 | 10 | 10 | 21.2 | 20 | 80 | 95 | 0 | 14.3 | 5.6 | 7.7 | 3.1 | 25 | 19.2 | 15.1 | 12.5 | 5 | 26.8 | 21.4 | 11.5 |  |
| CC1=NNC(=O)N(/N=C/c2cccnc2)C1 [Pymetrozine, reference compound] | 50 | 35 | 100 | 13.3 | 90 | 100 | 100 | 33.3 | 22.2 | 16.7 | 5 | 16.7 | 23.8 | 15.8 | 63.6 | 31.7 | 20 | 19 | 27.6 | 36.7 | mortality at 5 mg/kg [1]: 40%; Mortalities (%) against aphides ([2]; 2.5 mg/kg): no insecticidal activity; mortality at 2.5 mg/kg [2]: 0%; mortality at 5 mg/kg [2]: 30% |
